# Measurements reported in US9181234B2, “Antibacterial compounds” (priority 2010, dated 2015).
# Key:
# physchem = conditions: kinetic from dmso stock
# Outline: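 DMSO doubling dilutions were diluted twenty-fold into 100 mM citrate (pH 4), PBS (pH 7.4) or carbonate-bicarbonate (pH 9). After 24 h equilibration at room temperature, absorbance was read at 620 nm. The reported value is the highest concentration without measurable precipitate.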
# [1] = system: Staphylococcus aureus (Isolate ID ATCC 29213); assay: Antibacterial activity, MIC, S. aureus; assay type: cell-based; conditions: Staphylococcus aureus, ATCC29213, Gram positive strain; broth microdilution or agar dilution
# Outline: (§1)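 Readout is the MIC, established according to CLSI standard M7-A7 using either agar dilution or broth microdilution.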
# [2] = system: Enterococcus faecalis (Isolate ID ATCC 29212); assay: Antibacterial activity, MIC, E. faecalis; assay type: cell-based; conditions: Enterococcus faecalis, ATCC29212; Gram positive strain; broth microdilution or agar dilution
# Outline: as §1
# [3] = system: Streptococcus pyogenes (Isolate ID ATCC 51339); assay: Antibacterial activity, MIC, S. pyogenes; assay type: cell-based; conditions: Streptococcus pyogenes, ATCC51339, Gram positive strain; broth microdilution or agar dilution
# Outline: as §1
# [4] = system: Haemophilus influenzae (Isolate ID ATCC 49247); assay: Antibacterial activity, MIC, H. influenzae; assay type: cell-based; conditions: Haemophilus influenzae, ATCC49247; Gram negative strain; broth microdilution or agar dilution
# Outline: as §1
# [5] = Pharmacokinetic assay, IV and oral PK profile, rat; assay type: in vivo; conditions: for bioavailability: read-out: F (%) bioavailability
# Method: (§2) Pharmacokinetic Assays: Determination of PK Profile
# (§3) The pharmacokinetic profiles of compounds were determined by measuring the compound concentration in plasma by LC/MS/MS following a single intravenous or peroral administration of the compounds at a dose of 3 mg/kg. The concentrations described are the mean plasma concentrations at each time point from three animals. Intravenous dose formulation was administered as a single bolus dose through the tail vein. Oral dose formulation was administered to animals by an oral gavage needle. In both cases the dose volume was 5.0 mL/kg. Blood was collected from rats using a jugular vein catheter and from anesthetized mice through a capillary guided into the retro-orbital plexus. The collected blood was centrifuged to obtain plasma and the compounds extracted into methanol prior to determining the compound concentration by LC/MS/MS. The results for selected compounds of the invention are shown in FIGS. 2 to 8 where the X axis denotes time (hours) and the Y axis denotes plasma concentration (ng/mL). The Cmaxoral (μg/mL), AUCiv (μg·hr/mL), AUCoral (μg.hr/mL) and F(%) values are provided in the following table where Cmaxoral is the maximum oral concentration, AUC is area under the curve for intraveneous (IV) and oral and F (%) represents compound bioavailability as calculated by [AUCoral/AUCiv]×100%.
# [6] = Pharmacokinetic assay, IV and oral PK profile, mouse; assay type: in vivo; conditions: plasma; for bioavailability: [AUCoral/AUCiv]×100%, 3 mg/kg, read-out: F (%) bioavailability
# Method: as §2, §3
# [7] = pH 7.4, aqueous buffer, Max Solubility
# [8] = pH 7.4, aqueous buffer, Solubility (pH 7.4)
# [9] = pH 7.4, aqueous buffer, Solubility Range
# [10] = pH 7.4, aqueous buffer, Solubility Range (maximum solubility)
# [11] = po, single peroral dose 3 mg/kg, plasma, read-out: AUCoral
# [12] = single peroral dose 3 mg/kg, plasma
# [13] = po, single peroral dose 3 mg/kg, read-out: AUCoral
# [14] = single intravenous dose 3 mg/kg, read-out: AUCiv
# [15] = plasma, po, [AUCoral/AUCiv]×100%, 3 mg/kg
# [16] = single intravenous dose 3 mg/kg, plasma, read-out: AUCiv
solubility at 24 h (physchem; [7]) [µg/mL],solubility at 24 h (physchem; [8]) [µg/mL],solubility at 24 h (physchem; [9]) [µg/mL],solubility at 24 h (physchem; [10]) [µg/mL],MIC [1] [µg/mL],MIC [2] [µg/mL],MIC [3] [µg/mL],MIC [4] [µg/mL],"F (%) bioavailability ([5]; [AUCoral/AUCiv]×100%, 3 mg/kg) [%]","AUC [5, 11] [ng·h/mL]","AUCiv ([5]; single intravenous dose 3 mg/kg, plasma) [ng·h/mL]","Cmaxoral [5, 12] [ng/mL]",bioavailability ([6]; po) [%],"AUC [6, 13] [ng·h/mL]","AUC [6, 14] [ng·h/mL]",Cmaxoral ([6]; single peroral dose 3 mg/kg) [ng/mL],"bioavailability [5, 15] [%]","AUC [5, 16] [ng·h/mL]","solubility at 24 h (physchem; pH 9, aqueous buffer, Max Solubility) [µg/mL]","solubility at 24 h (physchem; pH 9, aqueous buffer, Solubility Range (maximum solubility)) [µg/mL]",SMILES
≥ 800,≥ 800,> 800,> 800,≤ 0.25,≤ 0.25,≤ 0.25,1 to 16,48,8300,17400,1800,,,,,,,,,"CCNC(=O)Nc1nc2cc(-c3cnc(N4CCC(C)(C(=O)O)CC4)nc3)cc(-c3ccccn3)c2s1 [Compound 1, 1-[5-[2-(ethylcarbamoylamino)-7-(2-pyridyl)-1,3-benzothiazol-5-yl]pyrimidin-2-yl]-4-methyl-piperidine-4-carboxylic acid]"
≥ 800,≥ 800,> 800,> 800,0.25 to 1,≤ 0.25,≤ 0.25,1 to 16,,2100,,600,33,2500,7600,1700,31,6600,,,CCNC(=O)Nc1nc2cc(-c3ccc(N4CCC(C)(C(=O)O)CC4)nc3)cc(-c3ccccn3)c2s1 [Compound 4]

# Second part, the compound before the results:
SMILES,solubility at 24 h (physchem; [7]) [µg/mL],solubility at 24 h (physchem; [8]) [µg/mL],solubility at 24 h (physchem; [9]) [µg/mL],solubility at 24 h (physchem; [10]) [µg/mL],MIC [1] [µg/mL],MIC [2] [µg/mL],MIC [3] [µg/mL],MIC [4] [µg/mL],"F (%) bioavailability ([5]; [AUCoral/AUCiv]×100%, 3 mg/kg) [%]","AUC [5, 11] [ng·h/mL]","AUCiv ([5]; single intravenous dose 3 mg/kg, plasma) [ng·h/mL]","Cmaxoral [5, 12] [ng/mL]",bioavailability ([6]; po) [%],"AUC [6, 13] [ng·h/mL]","AUC [6, 14] [ng·h/mL]",Cmaxoral ([6]; single peroral dose 3 mg/kg) [ng/mL],"bioavailability [5, 15] [%]","AUC [5, 16] [ng·h/mL]","solubility at 24 h (physchem; pH 9, aqueous buffer, Max Solubility) [µg/mL]","solubility at 24 h (physchem; pH 9, aqueous buffer, Solubility Range (maximum solubility)) [µg/mL]"
CCNC(=O)Nc1nc2cc(-c3cnc(N4CCC(C)(C(=O)O)CC4)nc3)cc(-c3cscn3)c2s1 [Compound 21],,≥ 800,> 800,,≤ 0.25,≤ 0.25,0.25 to 1,1 to 16,,1000,,400,,,,,14.3,7100,,
"CCNC(=O)Nc1nc2cc(-c3cnc(N4CCC(C)(C(=O)O)CC4)nc3)cc(/C(C)=N/OC)c2s1 [Compound 88, 1-[5-[2-(ethylcarbamoylamino)-7-[(E)-N-methoxy-C-methyl-carbonimidoyl]-1,3-benzothiazol-5-yl]pyrimidin-2-yl]-4-methyl-piperidine-4-carboxylic acid]",≥ 800,≥ 800,> 800,> 800,≤ 0.25,≤ 0.25,≤ 0.25,1 to 16,,,,,56,3400,6100,2000,,,,
CCNC(=O)Nc1nc2cc(-c3cnc(N4CCC(CC)(C(=O)O)CC4)nc3)cc(-c3ccccn3)c2s1 [Compound 98],,≥ 800,> 800,,≤ 0.25,≤ 0.25,≤ 0.25,1 to 16,,22200,,3500,87,12500,14300,6100,80.4,27700,,
CCNC(=O)Nc1nc2cc(-c3ccc(N4CCC(CC)(C(=O)O)CC4)nc3)cc(-c3ccccn3)c2s1 [Compound 103],,400,400 to 800,,≤ 0.25,≤ 0.25,≤ 0.25,1 to 16,,22200,,5700,,,,,76.5,29000,≥ 800,> 800
